Test results reported in patent US20250171438A1 (Agios Pharmaceuticals, Inc., priority 2022, published 2025).

Target: T1, human PAH with the R408W mutation (Homo sapiens, UniProt P00439, R408W)
T1 construct: expressed in transfected cells
T1 sequence (P00439 1-452 R408W): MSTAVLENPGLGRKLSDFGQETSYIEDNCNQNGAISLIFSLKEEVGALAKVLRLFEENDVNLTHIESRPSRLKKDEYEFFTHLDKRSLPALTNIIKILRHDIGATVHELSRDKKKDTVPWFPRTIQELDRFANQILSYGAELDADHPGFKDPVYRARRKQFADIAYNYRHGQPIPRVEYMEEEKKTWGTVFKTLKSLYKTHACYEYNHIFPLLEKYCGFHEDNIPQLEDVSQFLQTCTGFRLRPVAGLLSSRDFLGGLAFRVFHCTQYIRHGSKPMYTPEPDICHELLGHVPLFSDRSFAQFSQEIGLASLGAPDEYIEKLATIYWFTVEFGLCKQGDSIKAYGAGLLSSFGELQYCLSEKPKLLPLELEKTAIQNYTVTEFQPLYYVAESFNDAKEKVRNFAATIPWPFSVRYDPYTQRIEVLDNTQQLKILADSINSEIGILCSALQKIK
Experiment: Cell Based Phenylalanine Flux Assay
Conditions: A375 cells expressing human R408W PAH; 24 hrs compound incubation; 13C-Tyrosine by LC-MS; average where tested multiple times; read-out: AC50

SMILES	AC50
O=C(c1ncn2ccccc12)N1CCc2[nH]cnc2[C@@H]1c1nc2cc(F)ccc2s1 [Example 1158, (R)-(4-(5-fluorobenzo[d]thiazol-2-yl)-6,7-dihydro-1H-imidazo[4,5-c]pyridin-5(4H)-yl)(imidazo[1,5-a]pyridin-1-yl)methanone]	> 5000 nM
N#Cc1ccn2ncc(C(=O)N3CCc4[nH]cnc4[C@@H]3c3nc4cc(F)ccc4s3)c2c1 [Example 1159, (R)-3-(4-(5-fluorobenzo[d]thiazol-2-yl)-4,5,6,7-tetrahydro-1H-imidazo[4,5-c]pyridine-5-carbonyl)pyrazolo[1,5-a]pyridine-5-carbonitrile]	> 5000 nM
N#Cc1ccn2ncc(C(=O)N3CCc4[nH]cnc4[C@H]3c3nc4cc(F)ccc4s3)c2c1 [Example 1160, (S)-3-(4-(5-fluorobenzo[d]thiazol-2-yl)-4,5,6,7-tetrahydro-1H-imidazo[4,5-c]pyridine-5-carbonyl)pyrazolo[1,5-a]pyridine-5-carbonitrile]	500 to 1000 nM
Cc1ncoc1C(=O)N1CCc2[nH]cnc2[C@@H]1c1nc2ccccc2s1 [Example 1162, (R)-(4-(benzo[d]thiazol-2-yl)-6,7-dihydro-1H-imidazo[4,5-c]pyridin-5(4H)-yl)(4-methyloxazol-5-yl)methanone]	1000 to 5000 nM
Cc1nc(C)c(C(=O)N2CCc3[nH]cnc3[C@H]2c2nc3ccccc3s2)o1 [Example 1163]	< 500 nM
Cc1nn2ccccc2c1C(=O)N1CCc2[nH]cnc2[C@@H]1c1nc2ccccc2s1 [Example 1166, (R)-(4-(benzo[d]thiazol-2-yl)-6,7-dihydro-1H-imidazo[4,5-c]pyridin-5(4H)-yl)(2-methylpyrazolo[1,5-a]pyridin-3-yl)methanone]	500 to 1000 nM
O=C(c1cnn2ccc(F)cc12)N1CCc2[nH]cnc2[C@@H]1c1nc2c(F)cccc2s1 [Example 1169, (R)-(4-(4-fluorobenzo[d]thiazol-2-yl)-6,7-dihydro-1H-imidazo[4,5-c]pyridin-5(4H)-yl)(5-fluoropyrazolo[1,5-a]pyridin-3-yl)methanone]	1000 to 5000 nM
O=C(c1cnn2ccc(Br)cc12)N1CCc2[nH]cnc2[C@@H]1c1nc2c(F)cccc2s1 [Example 1172, (R)-(5-bromopyrazolo[1,5-a]pyridin-3-yl)(4-(4-fluorobenzo[d]thiazol-2-yl)-6,7-dihydro-1H-imidazo[4,5-c]pyridin-5(4H)-yl)methanone]	500 to 1000 nM

The remaining lines, values ahead:

AC50	SMILES
< 500 nM	Cc1ncoc1C(=O)N1CCc2[nH]cnc2[C@H]1c1nc2ccccc2s1 [Example 1161]
> 5000 nM	Cc1nc(C)c(C(=O)N2CCc3[nH]cnc3[C@@H]2c2nc3ccccc3s2)o1 [Example 1164, (R)-(4-(benzo[d]thiazol-2-yl)-6,7-dihydro-1H-imidazo[4,5-c]pyridin-5(4H)-yl)(2,4-dimethyloxazol-5-yl)methanone]
< 500 nM	Cc1nn2ccccc2c1C(=O)N1CCc2[nH]cnc2[C@H]1c1nc2ccccc2s1 [Example 1165]
500 to 1000 nM	O=C(c1cnn2ccc(Cl)cc12)N1CCc2[nH]cnc2[C@H]1c1nc2cc(F)ccc2s1 [Example 1167]
1000 to 5000 nM	O=C(c1cnn2ccc(Cl)cc12)N1CCc2[nH]cnc2[C@@H]1c1nc2cc(F)ccc2s1 [Example 1168, (R)-(5-chloropyrazolo[1,5-a]pyridin-3-yl)(4-(5-fluorobenzo[d]thiazol-2-yl)-6,7-dihydro-1H-imidazo[4,5-c]pyridin-5(4H)-yl)methanone]
500 to 1000 nM	O=C(c1cnn2ccc(F)cc12)N1CCc2[nH]cnc2[C@H]1c1nc2c(F)cccc2s1 [Example 1170, (S)-(4-(4-fluorobenzo[d]thiazol-2-yl)-6,7-dihydro-1H-imidazo[4,5-c]pyridin-5(4H)-yl)(5-fluoropyrazolo[1,5-a]pyridin-3-yl)methanone]
< 500 nM	O=C(c1cnn2ccc(Br)cc12)N1CCc2[nH]cnc2[C@H]1c1nc2c(F)cccc2s1 [Example 1171]
